Here are results for 17 molecules from US8268814B2, “Substituted sulfonamide compounds” (Gruenenthal GmbH, priority 2008, dated 2012).

In assay [1] the target is T1, human B1R receptor (hB1R) (Homo sapiens, UniProt P46663).
T1 construct: expressed in transfected cells; host or cells: CHO K1 cells (Chinese hamster ovary), stably transfected
T1 sequence (P46663 1-353): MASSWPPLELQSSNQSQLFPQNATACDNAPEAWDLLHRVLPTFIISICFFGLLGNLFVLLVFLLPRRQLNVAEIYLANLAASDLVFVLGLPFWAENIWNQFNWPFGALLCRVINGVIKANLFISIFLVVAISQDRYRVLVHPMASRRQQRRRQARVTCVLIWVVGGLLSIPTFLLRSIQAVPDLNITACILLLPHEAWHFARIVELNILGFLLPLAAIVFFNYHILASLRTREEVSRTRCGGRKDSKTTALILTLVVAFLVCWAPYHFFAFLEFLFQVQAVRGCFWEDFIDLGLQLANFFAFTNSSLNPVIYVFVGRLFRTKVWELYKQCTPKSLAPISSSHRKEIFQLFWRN
The assay can be described thus: Functional FLIPR Ca2+ assay on the bradykinin 1 receptor, human (hB1R CHO K1 cells). The format is cell-based. The conditions noted are these: test substance 10 μM; CHO K1 cells transfected with human B1R gene; agonist Lys-Des-Arg9-bradykinin at EC80; % inhibition compared with maximum achievable inhibition; read-out: B1R antagonism, human (10 μM] % inhibition. An outline of the steps:
(§1)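 Stably transfected CHO K1 cells expressing human or rat B1R, Fluo-4-loaded, Ca2+ influx read by FLIPR (peak fluorescence). Compounds (10 μM for % activation) preincubated 10-20 min, then EC80 agonist added: Lys-Des-Arg9-bradykinin for human, Des-Arg9-bradykinin for rat; % inhibition versus maximal inhibition, IC50 from concentration series.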

For assay [2], the target named is T2, B1R receptor of the rat (rB1R) (Rattus norvegicus, UniProt P97583).
T2 construct: expressed in transfected cells; host or cells: CHO K1 cells (Chinese hamster ovary), stably transfected
T2 sequence (P97583 1-337): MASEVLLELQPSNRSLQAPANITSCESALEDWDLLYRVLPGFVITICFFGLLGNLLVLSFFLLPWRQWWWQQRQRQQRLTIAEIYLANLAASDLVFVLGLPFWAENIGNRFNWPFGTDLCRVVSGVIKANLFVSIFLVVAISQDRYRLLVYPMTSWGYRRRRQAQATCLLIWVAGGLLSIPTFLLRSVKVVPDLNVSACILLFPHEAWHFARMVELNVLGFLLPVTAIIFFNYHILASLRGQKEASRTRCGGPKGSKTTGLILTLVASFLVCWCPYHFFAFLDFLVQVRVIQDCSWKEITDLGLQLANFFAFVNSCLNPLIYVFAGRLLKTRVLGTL
The assay can be described thus: Functional FLIPR Ca2+ assay on the bradykinin 1 receptor, rat (rB1R CHO K1 cells). The class given is cell-based. As to conditions: test substance 10 μM; CHO K1 cells transfected with rat B1R gene; agonist Des-Arg9-bradykinin at EC80; % inhibition compared with maximum achievable inhibition; read-out: B1R antagonism, rat [10 μM] % inhibition. An outline of the steps:
as §1

Regarding `CN1CCN(Cc2cc3c(s2)CCN(C(=O)CC(NS(=O)(=O)c2ccc4ccccc4c2)c2ccccc2)C3)CC1` (racemic) [Example 46, N-(3-(2-((4-methylpiperazin-1-yl)methyl)-6,7-dihydrothieno[3,2-c]pyridin-5(4H)-yl)-3-oxo-1-phenylpropyl)naphthalene-2-sulfonamide], the inhibition at 10 µM worked out at 100% in assay [1] and 102% in assay [2].

As to `COc1cc(C)c(S(=O)(=O)N(C)CCOCC(=O)N2CCc3onc(CN(C)C)c3C2)c(C)c1` [Example 32, N-(2-(2-(3-((dimethylamino)methyl)-6,7-dihydroisoxazolo[4,5-c]pyridin-5(4H)-yl)-2-oxoethoxy)ethyl)-4-methoxy-N,2,6-trimethylbenzenesulfonamide], the figures for the inhibition at 10 µM in assay [1] and in assay [2] were 99% and 104%, respectively.

As to `Cc1cc(S(=O)(=O)N2CCCCC2CCC(=O)N2CCc3sccc3C2c2cccc(C(F)(F)F)c2)c(C)cc1Cl` (stereo not shown) [Example 34, 3-(1-(4-chloro-2,5-dimethylphenylsulfonyl)piperidin-2-yl)-1-(4-(3-(trifluoromethyl)phenyl)-6,7-dihydrothieno[3,2-c]pyridin-5(4H)-yl)propan-1-one], the inhibition at 10 µM was determined as 29% in assay [1] and 57% in assay [2].

As to `COc1cc(C)c(S(=O)(=O)N2c3ccccc3CC[C@H]2COCC(=O)N2CCc3onc(-c4ccncc4)c3C2)c(C)c1` [Example 125, 2-[[(2S)-1-[(4-Methoxy-2,6-dimethyl-phenyl)sulfonyl]-1,2,3,4-tetrahydro-quinolin-2-yl]-methoxy]-1-(3-pyridin-4-yl-4,5,6,7-tetrahydro-isoxazolo[4,5-c]pyridin-5-yl)-ethanone], the inhibition at 10 µM in assay [1] stood at 75%; in assay [2] it was 102%.

In the case of `COc1cc(C)c(S(=O)(=O)N2CCCCC2COCC(=O)N2CCc3onc(-c4ccc(Cl)cc4)c3C2)c(C)c1` (stereo not shown) [Example 24, 1-(3-(4-chlorophenyl)-6,7-dihydroisoxazolo[4,5-c]pyridin-5(4H)-yl)-2-((1-(4-methoxy-2,6-dimethylphenylsulfonyl)piperidin-2-yl)methoxy)ethanone], the inhibition at 10 µM in assay [1] was 73%; in assay [2], 100%.

`COc1cc(C)c(S(=O)(=O)N2CCCCC2COCC(=O)N2CCc3onc(CN4CCCCC4)c3C2)c(C)c1` (stereo not shown) [Example 09, 2-((1-(4-methoxy-2,6-dimethylphenylsulfonyl)piperidin-2-yl)methoxy)-1-(3-(piperidin-1-ylmethyl)-6,7-dihydroisoxazolo[4,5-c]pyridin-5(4H)-yl)ethanone]: the inhibition at 10 µM in assay [1] worked out at 100%; in assay [2], 105%.

In the case of `COc1cc(C)c(S(=O)(=O)N2c3ccccc3CC[C@H]2COCC(=O)N2CCc3sc(CN4CCCCC4)cc3C2)c(C)c1` [Example 61, 2-[[(2S)-1-[(4-methoxy-2,6-dimethyl-phenyl)sulfonyl]-1,2,3,4-tetrahydro-quinolin-2-yl]-methoxy]-1-[2-(piperidin-1-yl-methyl)-4,5,6,7-tetrahydro-thieno[3,2-c]pyridin-5-yl]-ethanone], the inhibition at 10 µM came out at 100% in assay [1] and 106% in assay [2].

With `COc1cc(C)c(S(=O)(=O)N2CCCC[C@H]2COCC(=O)N2CCc3nc(CN4CCCCC4)sc3C2)c(C)c1` [Example 58, 2-[[(2S)-1-[(4-Methoxy-2,6-dimethyl-phenyl)sulfonyl]-piperidin-2-yl]-methoxy]-1-[2-(piperidin-1-yl-methyl)-4,5,6,7-tetrahydro-thiazolo[5,4-c]pyridin-5-yl]-ethanone], the values for the inhibition at 10 µM in assay [1] and in assay [2] were 100% and 103%, respectively.

Consider `COc1cc(C)c(S(=O)(=O)N2CCCCC2COCC(=O)N2CCc3onc(-c4ccc(F)cc4)c3C2)c(C)c1` (stereo not shown) [Example 25, 1-(3-(4-fluorophenyl)-6,7-dihydroisoxazolo[4,5-c]pyridin-5(4H)-yl)-2-((1-(4-methoxy-2,6-dimethylphenylsulfonyl)piperidin-2-yl)methoxy)ethanone], for which the inhibition at 10 µM in assay [1] stood at 86%; in assay [2], 103%.

For `COc1cc(C)c(S(=O)(=O)N2CCCCC2COCC(=O)N2CCc3sc(CN4CCN(C)CC4)cc3C2)c(C)c1` (stereo not shown) [Example 50, 2-((1-(4-methoxy-2,6-dimethylphenylsulfonyl)piperidin-2-yl)methoxy)-1-(2-((4-methylpiperazin-1-yl)methyl)-6,7-dihydrothieno[3,2-c]pyridin-5(4H)-yl)ethan-1-one], the inhibition at 10 µM in assay [1] came out at 100%; in assay [2], 102%.

`COc1cc(C)c(S(=O)(=O)N2CCCC[C@H]2COCC(=O)N2CCc3sc(CN4CCCC4)cc3C2)c(C)c1` [Example 62, 2-[[(2S)-1-[(4-methoxy-2,6-dimethyl-phenyl)sulfonyl]-piperidin-2-yl]-methoxy]-1-[2-(pyrrolidin-1-yl-methyl)-4,5,6,7-tetrahydro-thieno[3,2-c]pyridin-5-yl]-ethanone]: the inhibition at 10 µM in assay [1] was found to be 100%; in assay [2] it was 107%.

Turning to `COc1cc(C)c(S(=O)(=O)N2CCCCC2CCC(=O)N2CCc3sc(CN4CCN(C)CC4)cc3C2)c(C)c1` (stereo not shown) [Example 45, 3-(1-(4-methoxy-2,6-dimethylphenylsulfonyl)piperidin-2-yl)-1-(2-((4-methylpiperazin-1-yl)methyl)-6,7-dihydrothieno[3,2-c]pyridin-5(4H)-yl)propan-1-one], the inhibition at 10 µM came to 98% in assay [1] and 99% in assay [2].

Take `Cc1cc(S(=O)(=O)N2CCCCC2CCC(=O)N2CCc3sccc3C2c2ccccc2)c(C)cc1Cl` (stereo not shown) [Example 16, 3-(1-(4-chloro-2,5-dimethylphenylsulfonyl)piperidin-2-yl)-1-(4-phenyl-6,7-dihydrothieno[3,2-c]pyridin-5(4H)-yl)propan-1-one]: the inhibition at 10 µM in assay [1] was found to be 43%; in assay [2], 81%.

Take `O=C(CC1CCCCN1S(=O)(=O)c1cccc(C(F)(F)F)c1)N1CCc2nc(-c3ccncc3)sc2C1` (stereo not shown) [Example 37, 1-(2-(pyridin-4-yl)-6,7-dihydrothiazolo[5,4-c]pyridin-5(4H)-yl)-2-(1-(3-(trifluoromethyl)phenylsulfonyl)piperidin-2-yl)ethan-1-one]: the inhibition at 10 µM was 28% in assay [1] and 97% in assay [2].

With `COc1cc(C)c(S(=O)(=O)N2CCCCC2COCC(=O)N2CCc3sccc3C2c2ccc(C)cc2)c(C)c1` (stereo not shown) [Example 07, 2-((1-(4-methoxy-2,6-dimethylphenylsulfonyl)piperidin-2-yl)methoxy)-1-(4-p-tolyl-6,7-dihydrothieno[3,2-c]pyridin-5(4H)-yl)ethanone], the results for the inhibition at 10 µM in assay [1] and in assay [2] were 69% and 104%, respectively.

`COc1cc(C)c(S(=O)(=O)N(C)CCOCC(=O)N2CCc3onc(CN4CCOCC4)c3C2)c(C)c1` [Example 30, 4-methoxy-N,2,6-trimethyl-N-(2-(2-(3-(morpholinomethyl)-6,7-dihydroisoxazolo[4,5-c]pyridin-5(4H)-yl)-2-oxoethoxy)ethyl)benzenesulfonamide]: the inhibition at 10 µM in assay [1] came out at 99%; in assay [2], 104%.

As to `COc1cc(C)c(S(=O)(=O)N2CCCCC2COCC(=O)N2CCc3sccc3C2c2ccncc2)c(C)c1` (stereo not shown) [Example 36, 2-((1-(4-methoxy-2,6-dimethylphenylsulfonyl)piperidin-2-yl)methoxy)-1-(4-(pyridin-4-yl)-6,7-dihydrothieno[3,2-c]pyridin-5(4H)-yl)ethanone], the inhibition at 10 µM in assay [1] and in assay [2] was 100% throughout.

By inhibition is commonly meant the drop in the measured response relative to a control, in per cent.
